# Assay results: patent publication US12129237B2, “Substituted diaminocarboxamide and diaminocarbonitrile pyrimidines, compositions thereof, and methods of treatment therewith” (SIGNAL PHARMACEUTICALS, LLC, priority 2011, dated 2024)
# Target: T1, JNK1 (Homo sapiens, UniProt P45983)
# T1 construct: purchased Carna Biosciences
# Assay: JNK1 biochemical assays (one or more of: time resolved fluorescence, Z'-LYTE Cascade, radioactive)
# Conditions: Table 2; JNK1 IC50 activity level; read-out: Act. Level
# T1 sequence (P45983 whole entry): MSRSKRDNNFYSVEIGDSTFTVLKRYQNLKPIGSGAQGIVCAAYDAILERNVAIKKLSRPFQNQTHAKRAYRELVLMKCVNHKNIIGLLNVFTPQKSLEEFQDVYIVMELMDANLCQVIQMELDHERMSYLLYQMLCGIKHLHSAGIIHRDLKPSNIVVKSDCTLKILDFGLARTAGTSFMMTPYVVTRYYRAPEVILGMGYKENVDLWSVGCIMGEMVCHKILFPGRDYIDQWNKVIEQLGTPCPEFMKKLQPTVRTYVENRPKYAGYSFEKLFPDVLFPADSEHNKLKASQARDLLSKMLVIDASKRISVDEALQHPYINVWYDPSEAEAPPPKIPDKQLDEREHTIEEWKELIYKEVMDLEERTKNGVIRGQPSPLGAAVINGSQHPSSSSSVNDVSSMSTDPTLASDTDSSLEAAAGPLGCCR
row,IC50,SMILES
1,< 200 nM,"C[C@@H]1CC[C@@H](Nc2nc(N[C@H]3CCc4ncccc4C3)ncc2C(N)=O)C[C@H]1O [Example B-93, 4-((1R,3R,4R)-3-hydroxy-4-methylcyclohexylamino)-2-((S)-5,6,7,8-tetrahydroquinolin-6-ylamino)pyrimidine-5-carboxamide]"
2,< 200 nM,"NC(=O)c1cnc(N[C@@H]2CCCc3ccccc32)nc1N[C@@H]1CCC[C@H](O)C1 [Example B-74, 4-((1R,3S)-3-hydroxycyclohexylamino)-2-((R)-1,2,3,4-tetrahydronaphthalen-1-ylamino)pyrimidine-5-carboxamid]"
3,200 to 800 nM,"COc1cccc(CNc2ncc(C(N)=O)c(Nc3ccccc3)n2)c1OC [Example B-55, 2-(2,3-dimethoxybenzylamino)-4-(phenylamino)pyrimidine-5-carboxamide]"
4,1000 to 10000 nM,"NC(=O)c1cnc(NC2CCNCC2)nc1Nc1ccccc1 [Example B-9, 4-(phenylamino)-2-(piperidin-4-ylamino)pyrimidine-5-carboxamide]"
5,200 to 800 nM,"CC1(C)OCC(CNc2ncc(C(N)=O)c(Nc3ccccc3)n2)O1 (centres unmarked) [Example B-58, 2-((2,2-dimethyl-1,3-dioxolan-4-yl)methylamino)-4-(phenylamino)pyrimidine-5-carboxamide]"
6,< 200 nM,"NC(=O)c1cnc(NC2CCOCC2)nc1Nc1ccccc1 [Example B-11, 4-(phenylamino)-2-(tetrahydro-2H-pyran-4-ylamino)pyrimidine-5-carboxamide]"
7,< 200 nM,"NC(=O)c1cnc(N[C@H]2CC[C@H](N)CC2)nc1Nc1ccccc1 [Example B-7, 2-((1r,4r)-4-aminocyclohexylamino)-4-(phenylamino)pyrimidine-5-carboxamide]"
8,< 200 nM,"CCOc1ccc(Nc2ncc(C(N)=O)c(N[C@H]3CCC[C@@H]3O)n2)cc1 [Example B-1, 2-(4-ethoxyphenylamino)-4-((1S,2S)-2-hydroxycyclopentylamino)pyrimidine-5-carboxamide]"

# Same assay, conditions: Table 3; JNK1 IC50 activity level; read-out: Act. Level
row,IC50,SMILES
1,< 200 nM,"[2H]C([2H])([2H])O[C@H]1CC[C@H](Nc2ncc(C#N)c(N[C@@H]3CCC[C@](C)(O)C3)n2)CC1 [Example C-56, 4-((1R,3S)-3-hydroxy-3-methylcyclohexylamino)-2-((1r,4R)-4-((^2H3)methyloxy)cyclohexyl-amino)pyrimidine-5-carbonitrile]"
2,200 to 800 nM,"CCO[C@H]1CC[C@H](Nc2ncc(C#N)c(N[C@H]3CCC[C@@H](O)C3)n2)CC1 [Example C-1, 2-((1r,4S)-4-ethoxycyclohexylamino)-4-((1S,3R)-3-hydroxycyclohexylamino) pyrimidine-5-carbonitrile]"
3,1000 to 10000 nM,"CCO[C@H]1CC[C@H](Nc2ncc(C#N)c(N[C@H]3CCCOC3)n2)CC1 [Example C-24, 2-((1r,4S)-4-ethoxycyclohexylamino)-4-((S)-tetrahydro-2H-pyran-3-ylamino)pyrimidine-5-carbonitrile]"
4,< 200 nM,"CCO[C@H]1CC[C@H](Nc2ncc(C#N)c(N[C@@H]3CCC[C@](C)(O)C3)n2)CC1 [Example C-28, 2-((1r,4R)-4-ethoxycyclohexylamino)-4-((1R,3S)-3-hydroxy-3-methylcyclohexylamino) pyrimidine-5-carbonitrile]"
5,200 to 800 nM,"CCO[C@H]1CC[C@H](Nc2ncc(C#N)c(NC3CCCC3)n2)CC1 [Example C-23, 4-(cyclopentylamino)-2-((1r,4r)-4-ethoxycyclohexylamino) pyrimidine-5-carbonitrile]"

# Same assay, conditions: one or more of the JNK1 biochemical assays; read-out: Act. Level (JNK1 IC50 activity level)
row,IC50,SMILES
1,< 200 nM,"CC(C)(CO)Nc1nc(N[C@H]2CC[C@H](O)CC2)ncc1C(N)=O [Example 311, 4-(1-hydroxy-2-methylpropan-2-ylamino)-2-((1r,4r)-4-hydroxycyclohexylamino)pyrimidine-5-carboxamide]"
2,200 to 800 nM,"CC(C)Nc1nc(NC2CCOCC2)ncc1C(N)=O [Example 222, 4-(isopropylamino)-2-(tetrahydro-2H-pyran-4-ylamino)pyrimidine-5-carboxamide]"
3,< 200 nM,"CC(C)(Nc1nc(NC2CCOCC2)ncc1C(N)=O)C1CC1 [Example 467, 4-(2-cyclopropylpropan-2-ylamino)-2-(tetrahydro-2H-pyran-4-ylamino)pyrimidine-5-carboxamide]"
4,< 200 nM,"CO[C@H]1CC[C@](C)(Nc2ncc(C(N)=O)c(N[C@@H]3CCC[C@H](O)C3)n2)CC1 [Example 216, 4-((1R,3S)-3-hydroxycyclohexylamino)-2-((1r,4R)-4-methoxy-1-methylcyclohexylamino)pyrimidine-5-carboxamide]"
5,200 to 800 nM,"CC(C)(C)Nc1ncc(C(N)=O)c(N[C@H]2CCC(C)(C)[C@@H](O)C2)n1 [Example 323, 2-(tert-butylamino)-4-((1S,3S)-3-hydroxy-4,4-dimethylcyclohexylamino)pyrimidine-5-carboxamide]"
6,< 200 nM,"CC1CCC1Nc1nc(N[C@H]2CC[C@H](O)CC2)ncc1C(N)=O (some centres unmarked) [Example 244, 2-((1r,4r)-4-hydroxycyclohexylamino)-4-(2-methylcyclobutylamino)pyrimidine-5-carboxamide]"
7,< 200 nM,"CC(C)Nc1ncc(C(N)=O)c(N[C@@H]2CCC[C@](C)(O)C2)n1 [Example 338, 4-((1R,3S)-3-hydroxy-3-methylcyclohexylamino)-2-(isopropylamino)pyrimidine-5-carboxamide]"
8,< 200 nM,"CCC1(Nc2nc(N[C@H]3CC[C@H](OC)CC3)ncc2C(N)=O)CCCC1 [Example 454, 4-(1-ethylcyclopentylamino)-2-((1r,4r)-4-methoxycyclohexylamino)pyrimidine-5-carboxamide]"
9,< 200 nM,"CCO[C@H]1CC[C@H](Nc2ncc(C(N)=O)c(NC34CCC(C3)C4)n2)CC1 [Example 462, 4-(bicyclo[2.1.1]hexan-1-ylamino)-2-((1r,4r)-4-ethoxycyclohexylamino)pyrimidine-5-carboxamide]"
10,< 200 nM,"CC1(Nc2nc(N[C@@H]3CCC[C@H](O)C3)ncc2C(N)=O)CCC1 [Example 404, 2-((1R,3S)-3-hydroxycyclohexylamino)-4-(1-methylcyclobutylamino)pyrimidine-5-carboxamide]"
11,< 200 nM,"NC(=O)c1cnc(N[C@H]2CC[C@H](OC3CC3)CC2)nc1NC1CCC1 [Example 434, 4-(cyclobutylamino)-2-((1r,4r)-4-cyclopropoxycyclohexylamino)pyrimidine-5-carboxamide]"
12,< 200 nM,"CC(C)(C)Nc1nc(NC2(C)CCOCC2)ncc1C(N)=O [Example 389, 4-(tert-butylamino)-2-(4-methyltetrahydro-2H-pyran-4-ylamino)pyrimidine-5-carboxamide]"
13,< 200 nM,"NC(=O)c1cnc(NC2CCC2)nc1N[C@@H]1CCC[C@H](O)C1 [Example 341, 2-(cyclobutylamino)-4-((1R,3S)-3-hydroxycyclohexylamino)pyrimidine-5-carboxamide]"
14,< 200 nM,"NC(=O)c1cnc(N[C@H]2CC[C@H](OC3CC3)CC2)nc1NC12CCC(C1)C2 [Example 487, 4-(bicyclo[2.1.1]hexan-1-ylamino)-2-((1r,4r)-4-cyclopropoxycyclohexylamino)pyrimidine-5-carboxamide]"
15,< 200 nM,"CCO[C@H]1CC[C@H](Nc2ncc(C(N)=O)c(NC(C)(C)CO)n2)CC1 [Example 309, 2-((1r,4r)-4-ethoxycyclohexylamino)-4-(1-hydroxy-2-methylpropan-2-ylamino)pyrimidine-5-carboxamide]"
16,< 200 nM,"CC12CC(Nc3nc(NC45CCC(O)(CC4)C5)ncc3C(N)=O)(C1)C2 [Example 490, 2-(4-hydroxybicyclo[2.2.1]heptan-1-ylamino)-4-(3-methylbicyclo[1.1.1]pentan-1-ylamino)pyrimidine-5-carboxamide]"

# Same assay, conditions: tested in one or more of the JNK1 biochemical assays; read-out: Act. Level (JNK1 biochemical assay IC50 activity level)
row,IC50,SMILES
1,< 200 nM,"CO[C@H]1CC[C@@H](Nc2nc(N[C@H]3CC[C@H](O)CC3)ncc2C(N)=O)CC1 [Example A-100, 2-((1r,4r)-4-hydroxycyclohexylamino)-4-((1s,4s)-4-methoxycyclohexylamino)pyrimidine-5-carboxamide]"
2,< 200 nM,"CO[C@H]1CC[C@H](Nc2ncc(C(N)=O)c(N[C@H]3CC[C@H](O)CC3)n2)CC1 [Example A-34, 4-((1r,4r)-4-hydroxycyclohexylamino)-2-((1r,4r)-4-methoxycyclohexylamino)pyrimidine-5-carboxamide]"
3,< 200 nM,"COC(=O)N1CCC(Nc2ncc(C(N)=O)c(NC3CCCCC3)n2)CC1 [Example A-123, methyl 4-(5-carbamoyl-4-(cyclohexylamino)pyrimidin-2-ylamino)piperidine-1-carboxylate]"
4,< 200 nM,"CCO[C@H]1CC[C@H](Nc2ncc(C(N)=O)c(NC3CCC[C@H](O)C3)n2)CC1 (stereo partly drawn) [Example A-58, 2-((1r,4R)-4-ethoxycyclohexylamino)-4-((1R,3S)-3-hydroxycyclohexylamino)pyrimidine-5-carboxamide]"
5,< 200 nM,"NC[C@H]1CC[C@@H](Nc2nc(NC3CCOCC3)ncc2C(N)=O)CC1 [Example A-108, 4-((1s,4s)-4-(aminomethyl)cyclohexylamino)-2-(tetrahydro-2H-pyran-4-ylamino)pyrimidine-5-carboxamide]"
6,200 to 800 nM,"CCO[C@H]1CC[C@H](Nc2ncc(C(N)=O)c(N[C@H]3CCC[C@@H]3O)n2)C1 [Example A-64, 2-((1S,3S)-3-ethoxycyclopentylamino)-4-((1S,2S)-2-hydroxycyclopentylamino)pyrimidine-5-carboxamide]"
7,< 200 nM,"CCO[C@H]1CC[C@@H](Nc2nc(NC3CCN(C(=O)CC)CC3)ncc2C(N)=O)CC1 [Example A-113, 4-((1s,4s)-4-ethoxycyclohexylamino)-2-(1-propionylpiperidin-4-ylamino)pyrimidine-5-carboxamide]"
8,< 200 nM,"CCO[C@H]1CC[C@H](Nc2ncc(C(N)=O)c(N[C@H]3CCC[C@@H](O)C3)n2)CC1 [Example A-59, 2-((1r,4S)-4-ethoxycyclohexylamino)-4-((1S,3R)-3-hydroxycyclohexylamino)pyrimidine-5-carboxamide]"
9,1000 to 10000 nM,"CCNC(=O)[C@H]1CC[C@@H](Nc2nc(NC3CC3)ncc2C(N)=O)CC1 [Example A-137, 2-(cyclopropylamino)-4-((1s,4s)-4-(ethylcarbamoyl)cyclohexylamino)pyrimidine-5-carboxamide]"
